The target of assay [1] is T1, histidine tagged recombinant Human Lymphocyte-Specific Protein Tyrosine Kinase (Lck) (Homo sapiens, UniProt P06239).
T1 construct: histidine tag
In words: Lck kinase inhibition assay (fluorescence polarization, KinEASE FP Fluorescein Green). The class given is biochemical. The settings on record: 10 μM ATP, 250 μM substrate, 60 minutes, room temperature; Ki from IC50 by Cheng-Prusoff. The procedure: Kinase Binding Btk and Lck Kinase Inhibition Assay
Fluorescence polarization-based kinase assays were performed in 384 well-plate format using histidine tagged recombinant human full-length Bruton Agammaglobulinemia Tyrosine Kinase (Btk) or histidine tagged recombinant Human Lymphocyte-Specific Protein Tyrosine Kinase (Lck) and a modified protocol of the KinEASE™ FP Fluorescein Green Assay supplied from Millipore. Kinase reaction were performed at room temperature for 60 minutes in presence of 250 μM substrate, 10 μM ATP and variable test article concentrations. The reaction was stopped with EDTA/kinease detection reagents and the polarization measured on a Tecan 500 instrument. From the dose-response curve obtained, the IC50 was calculated using Graph Pad Prisms® using a non-linear fit curve. The Km for ATP on each enzyme was experimentally determined and the Ki values calculated using the Cheng-Prusoff equation (see: Cheng Y, Prusoff W H. (1973) Relationship between the inhibition constant (K1) and the concentration of inhibitor which causes 50 percent inhibition (I50) of an enzymatic reaction”. Biochem Pharmacol 22 (23): 3099-108).
ki values are reported in Tables 2 and 3: • a—Less than 100 nM; b—less than 1000 nM; c—more than 1000 nM

Another assay has as its system mouse splenocytes. In words: Splenic cell proliferation assay (anti-IgM stimulated B cell proliferation, Cell Titer-Glo). The class given is cell-based. The settings on record: Splenocyte; CD1 mouse splenocytes, 1 h pre-treatment, 2.5 ug/ml anti-IgM F(ab')2 for 72 h; read-out: EC50 (nM), Inhibition of splenic cell proliferation. Put shortly: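 Splenocytes from 6-week male CD1 mice, depleted of adherent cells, were pre-treated in triplicate with compound curves up to 10,000 nM for 1 h. B-cell proliferation was then driven by 2.5 ug/ml anti-IgM F(ab′)2 for 72 h, read by Cell Titer-Glo. EC50 was calculated relative to vehicle controls.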

Assay [2] addresses T2, histidine tagged recombinant human full-length Bruton Agammaglobulinemia Tyrosine Kinase (Btk) (Homo sapiens, UniProt Q06187).
T2 construct: recombinant human full-length Bruton Agammaglobulinemia Tyrosine Kinase (Btk); histidine tag
In words: Btk kinase inhibition assay (fluorescence polarization, KinEASE FP Fluorescein Green). The class given is biochemical. The settings on record: 10 μM ATP, 250 μM substrate, 60 minutes, room temperature; Ki from IC50 by Cheng-Prusoff; read-out: ki50 (nM), Inhibition of Btk. Put shortly:
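His-tagged recombinant human kinase (full-length Btk, or Lck) reacted 60 min at room temperature with 250 μM substrate and 10 μM ATP; stopped with EDTA and detection reagents, read by fluorescence polarization. IC50 from non-linear dose-response fit, converted to Ki by Cheng-Prusoff using each enzyme's measured ATP Km.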

T1 sequence (P06239 whole entry): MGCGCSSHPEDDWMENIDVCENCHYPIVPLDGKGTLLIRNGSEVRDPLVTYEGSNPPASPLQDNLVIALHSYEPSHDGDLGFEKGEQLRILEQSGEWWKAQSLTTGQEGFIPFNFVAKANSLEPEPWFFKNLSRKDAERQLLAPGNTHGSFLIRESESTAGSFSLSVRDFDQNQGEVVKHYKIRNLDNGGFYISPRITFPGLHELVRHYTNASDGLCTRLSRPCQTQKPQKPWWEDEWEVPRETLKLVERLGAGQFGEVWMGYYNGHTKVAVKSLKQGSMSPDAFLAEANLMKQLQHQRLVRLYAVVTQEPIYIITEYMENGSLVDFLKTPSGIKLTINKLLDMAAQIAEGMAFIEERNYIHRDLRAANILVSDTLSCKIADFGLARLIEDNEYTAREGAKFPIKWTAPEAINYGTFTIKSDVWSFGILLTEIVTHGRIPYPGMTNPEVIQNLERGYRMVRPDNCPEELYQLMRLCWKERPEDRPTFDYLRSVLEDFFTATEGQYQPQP
T2 sequence (Q06187 whole entry): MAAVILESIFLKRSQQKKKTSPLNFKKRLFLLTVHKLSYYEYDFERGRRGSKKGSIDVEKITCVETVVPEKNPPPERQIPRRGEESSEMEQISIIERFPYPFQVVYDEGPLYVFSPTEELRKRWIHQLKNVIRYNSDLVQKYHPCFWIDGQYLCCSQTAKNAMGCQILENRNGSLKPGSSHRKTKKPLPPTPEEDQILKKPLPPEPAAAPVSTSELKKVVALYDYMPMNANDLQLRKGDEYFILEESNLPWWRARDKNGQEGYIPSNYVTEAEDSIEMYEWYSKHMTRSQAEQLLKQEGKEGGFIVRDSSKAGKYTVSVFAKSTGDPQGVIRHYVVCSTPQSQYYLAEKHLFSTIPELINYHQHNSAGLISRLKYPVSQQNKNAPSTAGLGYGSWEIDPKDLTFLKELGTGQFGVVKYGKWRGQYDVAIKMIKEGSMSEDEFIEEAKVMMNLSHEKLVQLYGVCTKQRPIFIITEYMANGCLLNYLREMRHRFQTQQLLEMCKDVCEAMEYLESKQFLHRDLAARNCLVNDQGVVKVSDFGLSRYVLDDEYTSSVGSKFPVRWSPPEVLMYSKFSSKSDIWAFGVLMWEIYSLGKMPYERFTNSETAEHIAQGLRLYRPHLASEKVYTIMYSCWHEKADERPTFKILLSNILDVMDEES

For `CC1OCc2c1c1ncnc(N)c1n2-c1ccc(Oc2cccc(OCc3ccc(F)cc3)c2)cc1` (stereo not drawn) [Compound 49], the Ki in assay [1] and in assay [2] was less than 100 nM throughout. For the same compound, in the assay with mouse splenocytes, the EC50 is 100 to 1000 nM.
In the case of `CC1OCc2c1c1ncnc(N)c1n2-c1ccc(Oc2cccc(OCCOc3ccc(Cl)cc3)c2)cc1` (stereo not drawn) [Compound 50], the Ki in assay [1] and in assay [2] was less than 100 nM in each case. For the same compound, the EC50 with mouse splenocytes is more than 1000 nM.
Turning to `CC1OCc2c1c1ncnc(N)c1n2-c1ccc(Oc2cccc(OCc3cccnc3)c2)cc1` (stereo not drawn) [Compound 53], the Ki in assay [1] and in assay [2] was less than 100 nM each time. Moreover, in the assay on mouse splenocytes, the EC50 lay in the range of 100 to 1000 nM.
Consider `CC1OCc2c1c1ncnc(N)c1n2-c1ccc(Oc2cccc(OCc3ccncc3)c2)cc1` (stereo not drawn) [Compound 54], for which the Ki in assay [1] and in assay [2] was less than 100 nM each time. The EC50 with mouse splenocytes was more than 1000 nM.
`CC1OCc2c1c1ncnc(N)c1n2-c1ccc(Oc2cccc(OCC3CCCCC3)c2)cc1` (stereo not drawn) [Compound 56]: the Ki in assay [1] and in assay [2] was less than 100 nM throughout. Further, the EC50 in the assay on mouse splenocytes is more than 1000 nM.
As for `CC1OCc2c1c1ncnc(N)c1n2-c1ccc(Oc2cccc(OCc3ccc(C(F)(F)F)cc3)c2)cc1` (stereo not drawn) [Compound 57], the Ki in assay [1] and in assay [2] was less than 100 nM in each case. Moreover, the EC50 in the assay with mouse splenocytes was more than 1000 nM.
For the compound `CC1OCc2c1c1ncnc(N)c1n2-c1ccc(Oc2ccccc2C#N)cc1` (stereo not drawn) [Compound 58], the Ki in assay [1] is less than 100 nM; in assay [2], less than 1000 nM. For the same compound, the EC50 in the assay with mouse splenocytes is 100 to 1000 nM.
In the case of `COc1cc(F)cc(Oc2ccc(-n3c4c(c5ncnc(N)c53)C(C)OC4)cc2)c1` (stereo not drawn) [Compound 59], the Ki in assay [1] is less than 100 nM; in assay [2], less than 1000 nM. Also, the EC50 with mouse splenocytes was in the range of 100 to 1000 nM.
`CC1OCc2c1c1ncnc(N)c1n2-c1ccc(Oc2ccccc2C(N)=O)cc1` (stereo not drawn) [Compound 60]: the values for the Ki in assay [1] and in assay [2] were less than 1000 nM and more than 1000 nM, respectively. Moreover, in the assay with mouse splenocytes, the EC50 was more than 1000 nM.
Take `Nc1ncnc2c3c(n(-c4ccc(Oc5cccc(O)c5)cc4)c12)CCC3` [Compound 61]: the Ki in assay [1] was less than 100 nM; in assay [2], more than 1000 nM. In the assay on mouse splenocytes, the EC50 is more than 1000 nM.

The values are drawn from US9624239B2, “Protein kinase inhibitors” (Pharmascience Inc., priority 2011, dated 2017).
